Measurements from US9902964B2, “Growth arrested cells useful for producing compounds” (priority 2014, dated 2018).

Tests used:
Assay type in all cases: cell-based, Escherichia coli
[1] = system: persister cells of MG1655; assay: Antibiotic resistance of naturally occurring persister cells isolated by ofloxacin treatment (CFU count); conditions: chloramphenicol 30 μg/ml, ampicillin 100 μg/ml, 4 h at 37° C.; P=0.3, unpaired t test
Method: Persister cells were prepared in triplicate by ofloxacin treatment of stationary-phase cultures based on a previously described protocol (32). Overnight cultures of MG1655 cells grown in LB medium for 20 h were treated with ofloxacin for 3 h at 37° C., after which cells were pelleted, washed with fresh LB medium, pelleted again, and resuspended in antibiotic-free LB medium. After resuspension, chloramphenicol (30 μg/ml) and ampicillin (100 μg/ml) were added singly or in combination, and cells were incubated at 37° C. with shaking for 4 h. Samples were removed, pelleted once, washed with LB medium, resuspended, and serially diluted. A 10-μl volume of the serial dilutions was spot plated on an LB agar plate, which was incubated at 37° C. overnight. Colonies were counted the following day.

[2] = system: HipA-arrested cells (MG1655/pHipA); assay: β-Lactam susceptibility of HipA-arrested cells (optical density, lysis)
Method: Biological triplicates of MG1655/pHipA cells were inoculated into 30 ml of MOPS-M9 medium and grown at 37° C. until an OD600 of 0.5 was reached. aTc was added to reach 50 ng/ml, and the cultures were split into two 12-ml subcultures. At 2.5 h later, carbenicillin (100 μg/ml) was added to one subculture and optical densities were measured. For comparison of the levels of β-lactam tolerance of WT and ΔrelA cultures expressing HipA, biological triplicates of the WT/pHipA and ΔrelA/pHipA strains were inoculated into 5 ml of MOPS-M9 medium and grown at 37° C. HipA expression was induced with 50 ng/ml aTc when the OD600 reached ˜0.3. Ampicillin was added to reach a final concentration of 100 μg/ml 1.5 h later, and optical densities were monitored.

[3] = system: MG1655/pHipA cells; assay: Measurement of DNA and RNA concentrations in HipA-arrested cells; conditions: 30 μg/ml chloramphenicol added 1 h after HipA induction
Method: Cultures of MG1655/pHipA cells were inoculated into 40 ml of MOPS-M9 medium in 250-ml unbaffled Erlenmeyer flasks and incubated with shaking at 37° C. When the OD600 reached ˜0.3, aTc was added to reach 50 ng/ml. After 1 h of HipA induction, a sample was removed for DNA or RNA extraction, the cultures were split into two 15-ml cultures, and 30 μg/ml chloramphenicol was added to one of the cultures. For comparison of DNA and RNA synthesis results in WT and ΔrelA strains expressing HipA, biological triplicates of the WT/pHipA and ΔrelA/pHipA strains were grown in MOPS-M9 medium at 37° C. to an OD600 of 0.2 to 0.4, at which point HipA expression was induced by addition of aTc to 50 ng/ml. Samples were processed per a previously published protocol (27) using Picogreen (Invitrogen) for DNA quantification. RNA was quantified by measurement of fluorescence using the Quant-It assay (catalog no. Q33140; Invitrogen) following the manufacturer's instructions. Fluorescence was measured using a Spectromax M2 reader.

[4] = system: ppGpp concentration within HipA-arrested cells; assay: ppGpp measurements performed with HPLC in HipA-arrested cells; conditions: chloramphenicol treatment, within 15 min
Description: ppGpp and nucleotides were extracted from cells grown on agar-supported nylon filters, following a protocol inspired by the rapid-quenching and metabolite extraction approach described in reference 25. We adopted this technique to avoid perturbing ppGpp levels with lengthy cell harvesting and extraction procedures, as the enzymes that generate and degrade ppGpp are known to respond rapidly to external conditions (26). Briefly, cells grown in liquid medium to an optical density at 600 nm (OD600) of ˜0.1 were transferred to nylon filters and adhered to solid agar plates containing our modified MOPS-M9 medium. […] Concentrations of ppGpp and GTP were measured using anion-exchange chromatography and a Partisil 5 Sax Rac II column (catalog no. 422-227; Hichrom Limited), with a silica Nova-Pak guard column (catalog no. WAT046845; Whatman) per a protocol described previously (26) and modified for brevity. […] The column temperature was maintained at 50° C., and absorbance was monitored at 254 nm. […]
Cultures of MG1655/pHipA cells were inoculated into 40 ml of MOPS-M9 medium in 250-ml unbaffled Erlenmeyer flasks and incubated with shaking at 37° C. […] Samples were processed per a previously published protocol (27) using Picogreen (Invitrogen) for DNA quantification. […] Fluorescence was measured using a Spectromax M2 reader.

## CC1(C)S[C@@H]2[C@H](NC(=O)[C@H](N)c3ccccc3)C(=O)N2[C@H]1C(=O)O [ampicillin]
[1]
  reduction in CFU of isolated persisters: 41%±13%
[2]; ampicillin 100 μg/ml, ΔrelA/pHipA strain, FIG. 9D
  ampicillin resistance of ΔrelA strain expressing HipA: did not confer ampicillin resistance

## CC1(C)S[C@@H]2[C@H](NC(=O)C(C(=O)O)c3ccccc3)C(=O)N2[C@H]1C(=O)O (stereo partly drawn) [carbenicillin]
[2]; carbenicillin 100 μg/ml, HipA induced with 50 ng/ml aTc, FIG. 9C
  lysis of HipA-arrested WT cells: did not induce lysis

## O=C(N[C@H](CO)[C@H](O)c1ccc([N+](=O)[O-])cc1)C(Cl)Cl [chloramphenicol]
[3]; FIG. 9A
  inhibition of DNA synthesis in HipA-arrested cells: relieved inhibition
[3]; FIG. 9B
  inhibition of RNA synthesis in HipA-arrested cells: relieved inhibition
[4]
  decrease of ppGpp concentration within HipA-arrested cells: 60% (±20%)
